Results: publication PMC9027532, “Preclinical Pharmacokinetic Studies of a Novel Diuretic Inhibiting Urea Transporters” (Molecules, 2022)
Several values for one entry are separate records, joined by “and”; a condition that tells them apart may be missing. Equal entries are not always repeated.

Columns and labels:
[1] = Excretion experiment in rats (urine, feces); assay type: in vivo, SD rats; details: single oral dose 100 mg/kg
Experimental: The cumulative excretion ratios of unchanged 25a in the urine, feces, and bile of rats after a single oral dose at 100 mg/kg were 0.14% ± 0.05%, 3.16% ± 0.96%, and 0.018% ± 0.006%, respectively (Figure 6 and Tables S5–S7). […] Further phenotyping and metabolite identification studies should be conducted to elucidate the major elimination forms of 25a in the future.
Four SD rats were adapted in metabolic cages for 3 days in advance and then administrated with 25a at 100 mg/kg orally. Feces and urine were collected and weighed at 0–6 h, 6–12 h, […], 24–36 h, 36–48 h, 48–60 h, and 60–72 h after administration. Parallelly, four SD rats received bile duct cannulation and were given a single dose of 25a at 100 mg/kg orally. Bile was collected and weighed at 0–2 h, 0–4 h, 0–6 h, 0–8 h, 0–10 h, 0–12 h, 0–24 h, 0–36 h, and 0–48 h after administration. All samples were stored at −80 °C until analysis.

[2] = Plasma protein binding by equilibrium dialysis, rat plasma; assay type: in vitro ADME, SD rats
Experimental: The plasma protein binding (PPB) and blood plasma ratio (BPR) are crucial parameters influencing the drug distribution and elimination in plasma. The PPB profile of 25a was evaluated by equilibrium dialysis, a classic method to assess the interactions of small molecules with proteins. The PPB of 25a was tested at 50, 500, and 2500 ng/mL (Table 7). […] When considering the allometric scaling of PK parameters, the species difference of protein binding between humans and rats should be considered.
The plasma protein binding (PPB) ratio of 25a was assessed via equilibrium dialysis in SD rats and human plasma. Four hundred microliters of plasma containing 50, 500, or 2500 ng/mL 25a were loaded into the dialysis bags (plasma side), and the bags were placed into tubes containing 4 mL of the dialysis buffer (buffer side). The tubes were then rotated at approximately 100 rpm in a humidified incubator with 5% CO2 at 37 ± 1 °C for 5 h.
After the 5 h dialysis, aliquots of 50 μL samples were taken from both the buffer and the plasma sides. An equal volume of the opposite blank matrix (buffer or plasma) was added to each sample to reach a final volume of 100 μL with a volume ratio of plasma to dialysis buffer at 1:1 (v/v). All samples were further processed by adding 600 μL of stop solution (containing 10 ng/mL IS) to precipitate protein for LC–MS/MS analysis. The PPB ratio (%) was calculated by PPB% = 100% × (1 − Conc.buffer side/Conc.plasma side).

UT-B = tested on: UT-B; set-up: method as in PMID 34601246; details: mice; read-out: inhibitory effect on UT-B; cited from earlier work

CC(=O)Nc1ccc(NC(=O)c2ccc(C(C)=O)o2)cc1 [Compound 25a, N-(4-acetamidophenyl)-5-acetylfuran-2-carboxamide]
total cumulative excretion fractions of unchanged 25a in urine, feces, and bile [1]: less than 5%
Accumulated Amount in feces ([1]; 0-6 h): 0.248 ± 0.056 mg
Accumulated Amount in urine ([1]; 0-6 h): 0.0129 ± 0.0059 mg
Concentration in feces ([1]; 0-6 h): 6547.5 ± 1407.8 ng/mL
Concentration in urine ([1]; 0-6 h): 1865.0 ± 576.4 ng/mL
cumulative excretion ratio of unchanged 25a in feces ([1]; 100 mg/kg): 3.16% and 3.16% ± 0.96%
Accumulated Amount in feces ([1]; 6-12 h): 0.565 ± 0.130 mg
Accumulated Amount in urine ([1]; 6-12 h): 0.0221 ± 0.0046 mg
Concentration in feces ([1]; 6-12 h): 9237.5 ± 2337.8 ng/mL
Concentration in urine ([1]; 6-12 h): 1696.3 ± 1,244.3 ng/mL
Accumulated Amount in feces ([1]; 12-24 h): 0.798 ± 0.309 mg
Accumulated Amount in urine ([1]; 12-24 h): 0.0305 ± 0.0066 mg
Concentration in feces ([1]; 12-24 h): 6053.3 ± 4545.2 ng/mL
Concentration in urine ([1]; 12-24 h): 869.3 ± 442.0 ng/mL
Accumulated Amount in feces ([1]; 24-36 h): 0.802 ± 0.310 mg
Accumulated Amount in urine ([1]; 24-36 h): 0.0317 ± 0.0077 mg
Concentration in feces ([1]; 24-36 h): 188.2 ± 121.9 ng/mL
Concentration in urine ([1]; 24-36 h): 132.4 ± 108.1 ng/mL
Accumulated Amount in feces ([1]; 36-48 h): 0.802 ± 0.310 mg
Accumulated Amount in urine ([1]; 36-48 h): 0.0327 ± 0.0085 mg
Concentration in feces ([1]; 36-48 h): 7.0 ± 8.8 ng/mL
Concentration in urine ([1]; 36-48 h): 104.4 ± 95.7 ng/mL
Accumulated Amount in feces ([1]; 48-60 h): 0.802 ± 0.310 mg
Accumulated Amount in urine ([1]; 48-60 h): 0.0332 ± 0.0089 mg
Concentration in feces ([1]; 48-60 h): 2.1 ± 3.1 ng/mL
Concentration in urine ([1]; 48-60 h): 49.6 ± 31.9 ng/mL
Accumulated Amount in feces ([1]; 60-72 h): 0.802 ± 0.310 mg
Accumulated Amount in urine ([1]; 60-72 h): 0.0337 ± 0.0090 mg
Concentration in feces ([1]; 60-72 h): 3.8 ± 3.8 ng/mL
Concentration in urine ([1]; 60-72 h): 32.5 ± 11.2 ng/mL
fraction unbound at 5 h, 50 ng/mL ([2]; SD, rat plasma, 50 ng/mL): 0.368
fraction unbound at 5 h, 500 ng/mL ([2]; SD, rat plasma, 500 ng/mL): 0.386
fraction unbound at 5 h, 2500 ng/mL ([2]; SD, rat plasma, 2500 ng/mL): 0.355
fraction unbound at 5 h ([2]; Sprague-Dawley, rat plasma, 50, 500, 2500 ng/mL, read-out: mean plasma protein binding (PPB) (converted)): ~0.4
